Legend:
DC = assay: CD80/CD86 expression on bone marrow DC by flow cytometry; assay type: cell-based, mice
Description: 1. Derive the bone marrow cell from the BALB/c mice administrated with TJM2010-5, destruct the red blood cell, and place them into the RPMI1640 medium with the concentration of 2×10^6/ML (adding GM-CSF of 10 ng/ml, IL-4 of 10 ng/ml);
2. Remove the suspension cell 48 hours later, and collect the suspension and anchorage-dependent cell on day 6.
3. Place DCs into […] of TJM2010-5 for cultivating for 1 hour, add necrotic myocardium supernate, LPS (200 ng/ml), Poly I:C (20 mg/ml), CpG (10 mg/ml) to cultivate the cells for 12 hours.
4. Add the flow antibody FITC to label anti-CD80, CD86, and conduct detection with machine.
DC: Place the cells into a 48-pore plate, the number of cells is 1×10^6/pore, and 1 ml of medium system is added to each pore. Firstly, add TJM2010-5 of different concentration gradients to pre-incubate the cells for 2 h, then, add the LPS to get the final concentration of 1 ug/ml, and then incubate them in CO2 incubator at 37° C. for one night (12 h).
Add the flow antibody FITC to label anti-CD80, CD86, and conduct detection with machine.

Balb/c mice = assay: AOM/DSS chronic colitis and colitis-associated colorectal cancer (CAC) model; assay type: in vivo
Description: Construct the chronic colitis and colitis-associated colorectal cancer (CAC) model: apply intraperitoneal injection of 10 mg/Kg azoxymethane (AOM) (Sigma-Aldrich Chemical) to 40Balb/c mice, and start to execute three cycles of feeding of drinking water containing 2.5% of dextran sodium sulfate (DSS) (MP Biomedicals) 7 days later, and each cycle consists one week of feeding DSS water and two weeks of feeding common fresh water. Then, observe them in the following 10 weeks. […] 100% of mice in this group have colorectal cancer.
TJM2010-5 treatment group: Provide intragastric administration of TJM2010-5 of 50 mg/kg to 20 Balb/c mice in two days before providing the treatment mentioned above, and observe them in ten weeks.
Mechanism study: Take the specimen of serum, colon, and spleen etc. from 4 mice in each group 2 weeks and 7 weeks later to detect the infiltration of IRAK4 and inflammatory cytokines, macrophage and Gr-1^highCD11b^high MDSC, and the proportion of LPMCs (lamina propria mononuclearcells) F4/80^+CD11b^+ macrophage etc.
The experimental procedure is the same with that of the experiment on effect of TJM2010-5 in preventing and treating colitis and colorectal cancer: Apply intragastric administration of TJM2010-1, TJM2010-2, TJM2010-3, TJM2010-4, TJM2010-5 of 50 mg/kg to 20 Balb/c mice in each group of totally 6 groups, and then, observe them in the following 10 weeks. The mice with colitis and colorectal cancer in the group corresponding to TJM2010-5 and TJM2010-1, TJM2010-2, TJM2010-3, TJM2010-4, TJM2010-5 accounts 0%, 71.52%, 42.28%, 60.19%, 81.34% respectively; 2. TJM2010-5 can 100% prevent and cure chronic colitis and prevent the colorectal cancer incurred by chronic colitis. […] Other aminothiazole compound has no or little such curative effect.

[1] = system: skin of Balb/c mice transplanted to C57bl/6 mice; assay: mice skin transplantation model (graft survival, tolerance); assay type: in vivo; details: Balb/c skin to C57bl/6; TJM2010-5 150 mg/kg/d ip, MR1 200 μg/d ip
From the text: 2) Application of TJM2010-5 combined with costimulatory molecules inhibitor-anti-CD154 monoclonal antibody (MR1) in mice skin transplantation model
Five groups are set in the experiment, which are: allogeneic skin grafting control group (the rejection time reported in literature is 8-10 days), TJM2010-5 group, MR1 group and combination treatment group (TJM2010-5+MR1).
The specific handling methods as follows:
Allogeneic skin grafting CMC control group: take and transplant the skin of Balb/c mice to the back of C57bl/6 mice, and provide intraperitoneal injection of 0.5% CMC on day 0 to day 3, and day 5, 7, 9, 11, 13, 15 after the operation, the does is 200 μl/day; in the homogenic skin transplantation group: take and transplant the […] of C57bl/6 mice to the back of C57bl/6 mice, and no special treatment is provided after operation.
The TJM2010-5 Group: take and transplant the skin of Balb/c mice to the back of C57bl/6 mice, and provide intraperitoneal injection of the TJM2010-5 dissolved in 0.5% CMC on day 0 to day 3, and day 5, 7, 9, 11, 13, 15 after the operation, the does is 150 mg/kg/d;
The MR1 Group: take and transplant the skin of Balb/c mice to the back of C57bl/6 mice, and provide intraperitoneal injection of MR 1 on day 0, 1, 3, 7, 14 after the operation, the does is of 200 μg/d; […]

## O=C(CCN1CCN(Cc2ccccc2)CC1)Nc1nc(-c2ccccc2)cs1 [TJM2010-5, 3-(4-benzylpiperazin-1-yl)-N-(4-phenylthiazol-2-yl) propanamide]
DC
  up-regulation of costimulatory molecules CD80/CD86 incurred by LPS, CpG: inhibit up-regulation
DC; DC, 2 h pre-incubation, LPS 1 ug/ml, 12 h, FIG. 3c
  expression of CD80 on DC surface: concentration-dependent inhibition
DC; FIG. 3b
  CD80 expression on DC stimulated by LPS, CPG, cardiac tissue homogenate: down-regulate
Balb/c mice; 50 mg/kg intragastric
  colitis finding: No apparent colitis
Balb/c mice; 50 mg/kg intragastric, 20 Balb/c mice per group, observed 10 weeks
  mice with colitis and colorectal cancer: 0%
Balb/c mice; 50 mg/kg intragastric, FIG. 12A
  weights vs untreated group: obviously higher than that of untreated group
Balb/c mice; 50 mg/kg intragastric, FIG. 12B
  survival rate vs control group: obviously higher than that of control group
Balb/c mice; FIG. 12C
  mice having colitis and colorectal cancer: no mice
Balb/c mice; FIG. 13A
  activation of IRAK4: inhibit
  p-IRAK4: reduce
Balb/c mice; FIG. 13B
  activation of NF-κB p65: inhibit
Balb/c mice; FIG. 13C
  generation of G-CSF vs control group: obviously lower than those of control group
  generation of IL-6 vs control group: obviously lower than those of control group
  generation of MIP-1β vs control group: obviously lower than those of control group
  generation of TGF-β1 vs control group: obviously lower than those of control group
  generation of TNF-α vs control group: obviously lower than those of control group
Balb/c mice; FIG. 13D
  level of IL-6 mRNA vs control group: obviously lower than those of control group
  level of TGF-β1 mRNA vs control group: obviously lower than those of control group
Balb/c mice; FIG. 14
  infiltration of macrophage: reduce
Balb/c mice; FIG. 14B
  F4/80+CD11b+ tumor-associated macrophage in LPMCs: reduces
Balb/c mice; FIG. 14C
  infiltration of Gr-1highCD11bhigh MDSC (myeloid suppressor cells): reduce
Balb/c mice; FIG. 14D
  expression of IL-6: reduce
Balb/c mice; intragastric
  prevention and cure of chronic colitis and prevention of colorectal cancer: 100%
[1]
  effect on tolerance induction of the skin graft: no obvious effect

— US20180318291A1, “USE OF AMINOTHIAZOLE MYD88 SPECIFIC INHIBITOR TJM2010-5” (WUHAN INNAMUNE PHARMACEUTICAL INC. LTD., priority 2015, published 2018)
